Source: patent US10118935B2, “Melampomagnolide B dimers” (priority 2014, dated 2018)

How the values were obtained:
EKVX = test: NCI 60 cell line five dose, Non-Small Cell Lung Cancer; type: cell-based, human
LOX IMVI = test: NCI 60 cell line five dose, Melanoma
SF-539 = test: NCI 60 cell line five dose, CNS Cancer
HCT-116 = test: NCI 60 cell line five dose, Colon Cancer
SW-620 = test: NCI 60 cell line five dose, Colon Cancer
786-0 = test: NCI 60 cell line five dose, Renal Cancer
ACHN = test: NCI 60 cell line five dose, Renal Cancer
CAKI-1 = test: NCI 60 cell line five dose, Renal Cancer
MDA-MB-231/ATCC = test: NCI 60 cell line five dose, Breast Cancer
SK-OV-3 = test: NCI 60 cell line five dose, Ovarian Cancer
DU-145 = test: NCI 60 cell line five dose, Prostate Cancer
A549/ATCC = test: NCI 60 cell line five dose, Non-Small Cell Lung Cancer

Compound: C=C1C(=O)O[C@H]2[C@H]1CC/C(COC(=O)NCCCCNC(=O)OC/C1=C/CC[C@@]3(C)O[C@H]3[C@H]3OC(=O)C(=C)[C@@H]3CC1)=C\CC[C@@]1(C)O[C@@H]21 [JVM 3-54, bis(((1aR,7aS,10aS,10bS,E)-1a-Methyl-8-methylene-9-oxo-1a,2,3,6,7,7a,8,9,10a,10b-decahydrooxireno[2′,3′:9,10]cyclodeca[1,2-b]furan-5-yl)methyl)butane-1,4-diyldicarbamate]
- GI50 (EKVX): 3.69 µM
- TGI (EKVX): 13.5 µM
- Percent Growth (EKVX; Log10 Concentration −4.0): −98%
- Percent Growth (EKVX; Log10 Concentration −5.0): 15%
- Percent Growth (EKVX; Log10 Concentration −6.0): 96%
- Percent Growth (EKVX; Log10 Concentration −7.0): 92%
- Percent Growth (EKVX; Log10 Concentration −8.0): 97%
- CC50 (EKVX; read-out: LC50 (the source's name)): 37.3 µM
- GI50 (LOX IMVI): 0.519 µM
- TGI (LOX IMVI): 1.92 µM
- Percent Growth (LOX IMVI; Log10 Concentration −4.0): −74%
- Percent Growth (LOX IMVI; Log10 Concentration −5.0): −84%
- Percent Growth (LOX IMVI; Log10 Concentration −6.0): 33%
- Percent Growth (LOX IMVI; Log10 Concentration −7.0): 93%
- Percent Growth (LOX IMVI; Log10 Concentration −8.0): 93%
- CC50 (LOX IMVI; read-out: LC50): 5.15 µM
- GI50 (SF-539): 1.55 µM
- TGI (SF-539): 3.71 µM
- Percent Growth (SF-539; Log10 Concentration −4.0): −100%
- Percent Growth (SF-539; Log10 Concentration −5.0): −57%
- Percent Growth (SF-539; Log10 Concentration −6.0): 75%
- Percent Growth (SF-539; Log10 Concentration −7.0): 93%
- Percent Growth (SF-539; Log10 Concentration −8.0): 103%
- CC50 (SF-539; read-out: LC50): 8.84 µM
- GI50 (HCT-116): 1.12 µM
- TGI (HCT-116): 2.63 µM
- Percent Growth (HCT-116; Log10 Concentration −4.0): −88%
- Percent Growth (HCT-116; Log10 Concentration −5.0): −78%
- Percent Growth (HCT-116; Log10 Concentration −6.0): 56%
- Percent Growth (HCT-116; Log10 Concentration −7.0): 85%
- Percent Growth (HCT-116; Log10 Concentration −8.0): 99%
- CC50 (HCT-116; read-out: LC50): 6.19 µM
- GI50 (SW-620): 0.586 µM
- TGI (SW-620): 2.04 µM
- Percent Growth (SW-620; Log10 Concentration −4.0): −72%
- Percent Growth (SW-620; Log10 Concentration −5.0): −79%
- Percent Growth (SW-620; Log10 Concentration −6.0): 35%
- Percent Growth (SW-620; Log10 Concentration −7.0): 98%
- Percent Growth (SW-620; Log10 Concentration −8.0): 100%
- CC50 (SW-620; read-out: LC50): 5.56 µM
- GI50 (786-0): 1.99 µM
- TGI (786-0): 4.25 µM
- Percent Growth (786-0; Log10 Concentration −4.0): −91%
- Percent Growth (786-0; Log10 Concentration −5.0): −56%
- Percent Growth (786-0; Log10 Concentration −6.0): 95%
- Percent Growth (786-0; Log10 Concentration −7.0): 91%
- Percent Growth (786-0; Log10 Concentration −8.0): 98%
- CC50 (786-0; read-out: LC50): 9.11 µM
- GI50 (ACHN): 3.44 µM
- TGI (ACHN): 12.9 µM
- Percent Growth (ACHN; Log10 Concentration −4.0): −91%
- Percent Growth (ACHN; Log10 Concentration −5.0): 11%
- Percent Growth (ACHN; Log10 Concentration −6.0): 95%
- Percent Growth (ACHN; Log10 Concentration −7.0): 97%
- Percent Growth (ACHN; Log10 Concentration −8.0): 100%
- CC50 (ACHN; read-out: LC50): 39.8 µM
- GI50 (CAKI-1): 10.8 µM
- TGI (CAKI-1): 23 µM
- Percent Growth (CAKI-1; Log10 Concentration −4.0): −97%
- Percent Growth (CAKI-1; Log10 Concentration −5.0): 55%
- Percent Growth (CAKI-1; Log10 Concentration −6.0): 91%
- Percent Growth (CAKI-1; Log10 Concentration −7.0): 90%
- Percent Growth (CAKI-1; Log10 Concentration −8.0): 93%
- CC50 (CAKI-1; read-out: LC50): 49.1 µM
- GI50 (MDA-MB-231/ATCC): 1.53 µM
- TGI (MDA-MB-231/ATCC): 3.24 µM
- Percent Growth (MDA-MB-231/ATCC; Log10 Concentration −4.0): −85%
- Percent Growth (MDA-MB-231/ATCC; Log10 Concentration −5.0): −76%
- Percent Growth (MDA-MB-231/ATCC; Log10 Concentration −6.0): 79%
- Percent Growth (MDA-MB-231/ATCC; Log10 Concentration −7.0): 104%
- Percent Growth (MDA-MB-231/ATCC; Log10 Concentration −8.0): 103%
- GI50 (SK-OV-3): 12.7 µM
- TGI (SK-OV-3): 25.3 µM
- Percent Growth (SK-OV-3; Log10 Concentration −4.0): −100%
- Percent Growth (SK-OV-3; Log10 Concentration −5.0): 67%
- Percent Growth (SK-OV-3; Log10 Concentration −6.0): 107%
- Percent Growth (SK-OV-3; Log10 Concentration −7.0): 102%
- Percent Growth (SK-OV-3; Log10 Concentration −8.0): 98%
- CC50 (SK-OV-3; read-out: LC50): 50.4 µM
- GI50 (DU-145): 3.21 µM
- TGI (DU-145): 10.5 µM
- Percent Growth (DU-145; Log10 Concentration −4.0): −96%
- Percent Growth (DU-145; Log10 Concentration −5.0): 2%
- Percent Growth (DU-145; Log10 Concentration −6.0): 99%
- Percent Growth (DU-145; Log10 Concentration −7.0): 98%
- Percent Growth (DU-145; Log10 Concentration −8.0): 99%
- CC50 (DU-145; read-out: LC50): 33.8 µM
- GI50 (A549/ATCC): 8.02 µM
- TGI (A549/ATCC): 23.1 µM
- Percent Growth (A549/ATCC; Log10 Concentration −4.0): −79%
- Percent Growth (A549/ATCC; Log10 Concentration −5.0): 45%
- Percent Growth (A549/ATCC; Log10 Concentration −6.0): 99%
- Percent Growth (A549/ATCC; Log10 Concentration −7.0): 99%
- Percent Growth (A549/ATCC; Log10 Concentration −8.0): 100%
- CC50 (A549/ATCC; read-out: LC50): 58.7 µM
